From publication PMC11695783 (Frontiers in Pharmacology, 2024)
In brackets after ≈: the same amount, converted by molar mass. Several values for one entry are separate records, joined by “and”; a condition that tells them apart may be missing. Equal values may be shown once.

Columns and labels:
[1] = tested on: Mycoplasma pneumoniae strain M129 (ATCC 29342); assay: Susceptibility assay (broth microdilution MIC, MBC); assay type: cell-based
Experimental: Mycoplasma pneumoniae strain M129 (ATCC 29342) was obtained from American Type Culture Collection (Manassas, VA, United States) and cultured at 37°C in the presence of 5% CO2 in the modified SP-4 liquid medium (pH 7.4) containing 2.1% (w/v) CM1166 mycoplasma broth base medium (Oxoid, Hants, United Kingdom), 20% (v/v) fetal bovine serum (FBS, Bioexplorer, CO, United States), 0.4% yeast extract (Oxoid), 0.55% (w/v) CMRL 1066 w/L-glutamine culture media powder (MyBioSource, San Diego, CA, United States), 1% D-glucose (Macklin) and 0.004% phenol red (Macklin). […] The solid medium is based on the above formula with the addition of 1% agar, and the characteristic fried egg-like colonies were used for experiments following incubation for 7 d on plates.
The broth microdilution MIC procedure was performed according to standardized methods for microdilution susceptibility testing of mycoplasma species ([Waites et al., 2012]). […] The concentration of organisms should be determined to approximately 10^6 CFU/mL prior to inoculation into 96-well plates. Due to the action of phenol red, the acidic metabolites of microbial growth can turn the medium yellow. […] The MBC assays were performed based on MICs following endpoint reading and the liquid in the high-concentration wells was removed for bacterial counting.

[2] = tested on: inflammatory cells in BALF (neutrophils, macrophages, lymphocytes); assay: Inflammatory cell analysis in BALF of M. pneumoniae-infected mice; assay type: in vivo, BALB/c mice
Experimental: (§1) Adult BALB/c mice (20–22 g) were divided into a control group, a positive group, and compound 16C groups at low (20 mg/kg), medium (40 mg/kg), and high-dose (80 mg/kg) levels and oral and intramuscular tiamulin treatment groups (40 mg/kg). We formulated the above dose range based on the dose at which tiamulin was approved for injection (10–20 mg/kg) and the dose previously reported (45 mg/kg) ([EMA, 1999]; [Xiao et al., 2016]). In summary, we selected similar doses for compound 16C in vivo study. 40 mg/kg was used as an intermediate value, one-half of it as a low dose, and two times of it as a high dose. To prepare the challenge solution, logarithmic phase culture suspensions were centrifuged at 1700 g for 10 min, and the pellets were suspended in sterile PBS to obtain 1 × 10^9 CFU/mL. Before the challenge, mice were anesthetized with tribromoethanol (250 mg/kg, IP). Mice in the control groups were intratracheally inoculated with sterile PBS, whereas mice in the other groups were intratracheally challenged with 50 μL (1 × 10^9 CFU/mL) M. pneumoniae suspension once a day for 3 days. Compound 16C and tiamulin (tiamulin-IM group) dissolved using the method mentioned in pharmacokinetic studies, and the tiamulin fumarate soluble powder was dissolved in ddH2O for oral administration. After the final challenge, antibiotics were administered at low, medium, and high-dose levels (see above) at 10 a.m. and 10 p.m. daily for 4 consecutive days. Normal saline containing 5% DMSO and 5% Tween-80 was administered as control and positive groups by thigh intramuscular injection. To compare the efficacy of compound 16C and tiamulin under the same route of administration, we used the original tiamulin for intramuscular administration in the same formulation. On the other hand, tiamulin fumarate soluble powder, approved for oral administration to treat animal mycoplasma diseases in China, was administered to mice by gavage. Based on a clinical study of lefamulin in community-acquired bacterial pneumonia (CABP), subjects were administered twice a day and the 96 ± 24 h of starting treatment was an essential point for early clinical response (ECR) ([Paukner et al., 2022]). We therefore stopped treatment at 96 h and sampled at 192 h to explore whether the disease worsened after cessation of treatment. Bronchoalveolar lavage fluid (BALF) and lungs were collected at 0, 96, 192 h (Samples of 0 h were collected before starting treatment, and mice were fed ad libitum without drug treatment during 96–192 h) after the first dose, BALF for cytokine and cytological analysis and lung for histopathological evaluation.
(§2) Bronchoalveolar lavage was performed according to a standardized method ([Van Hoecke et al., 2017]). BALF was obtained following infusion of 0.5 mL PBS via tracheal cannulation into the lung twice (total 1 mL), and 200 µL was used for mycoplasma counts. The remaining BALF was centrifuged at 300 g for 10 min to separate the debris. The supernatants were stored at −80°C, and the debris was resuspended in the same volume of PBS containing red blood cell lysis buffer. A hemocytometer was used to count total cell numbers in BALF, and cell smears (Diff-Quik staining) were prepared to calculate the percentages of neutrophils, macrophages, and lymphocytes. IFN-γ, TNF-α, and CXCL1 levels in BALF samples were assessed using commercial ELISA kits using guidelines recommended by the manufacturer (Elabscience, Wuhan, China). Parallel data for each experimental group at each time point were obtained from six different mice.

TNF-α = TNF-α in BALF of M. pneumoniae-infected mice (ELISA); assay type: in vivo, BALB/c mice; details: for TNF-α in BALF (AV): group AV; for TNF-α in BALF: individual mice
Experimental: as §1, §2

[3] = compound 16C 20 mg/kg IM, 192 h
[4] = compound 16C 40 mg/kg IM, 192 h
[5] = compound 16C 80 mg/kg IM, 192 h

C=CC1(C)CC(OC(=O)CSc2ccc(NC(=O)Cc3ccc([N+](=O)[O-])cc3)cc2)C2(C)C(C)CCC3(CCC(=O)C32)C(C)C1O (stereo not shown) [compound 16C, 22–((4-((4-nitrophenyl)acetamido)phenyl)thio)deoxypleuromutilin]
MBC ([1]; M. pneumoniae strain M129): 7.812 ng/mL (≈ 12 nM) | MIC ([1]; M. pneumoniae strain M129, ≈96 h): 1.953 ng/mL (≈ 3.01 nM) | cell counts, total (AV) ([2]; 20mg/kg, time 0): 48.3833 n*10^5 | cell counts, 中 (neutrophils) (AV) ([2]; 20mg/kg, time 0): 42.2036 n*10^5 | cell counts, 巨 (macrophages) (AV) ([2]; 20mg/kg, time 0): 5.64 n*10^5 | cell counts, 淋 (lymphocytes) (AV) ([2]; 20mg/kg, time 0): 0.5399 n*10^5 | cell counts, total (AV) ([2]; 20mg/kg, time 96): 8.192 n*10^5 | cell counts, 中 (neutrophils) (AV) ([2]; 20mg/kg, time 96): 1.83 n*10^5 | cell counts, 巨 (macrophages) (AV) ([2]; 20mg/kg, time 96): 3.157 n*10^5 | cell counts, 淋 (lymphocytes) (AV) ([2]; 20mg/kg, time 96): 3.205 n*10^5 | cell counts, total (AV) ([2]; 20mg/kg, time 192): 2.917 n*10^5 | cell counts, 中 (neutrophils) (AV) ([2]; 20mg/kg, time 192): 1.486 n*10^5 | cell counts, 巨 (macrophages) (AV) ([2]; 20mg/kg, time 192): 0.8746 n*10^5 | cell counts, 淋 (lymphocytes) (AV) ([2]; 20mg/kg, time 192): 0.5558 n*10^5 | cell counts, total (AV) ([2]; 40mg/kg, time 0): 47.0528 n*10^5 | cell counts, 中 (neutrophils) (AV) ([2]; 40mg/kg, time 0): 40.6758 n*10^5 | cell counts, 巨 (macrophages) (AV) ([2]; 40mg/kg, time 0): 4.508 n*10^5 | cell counts, 淋 (lymphocytes) (AV) ([2]; 40mg/kg, time 0): 1.869 n*10^5 | cell counts, total (AV) ([2]; 40mg/kg, time 96): 7.083 n*10^5 | cell counts, 中 (neutrophils) (AV) ([2]; 40mg/kg, time 96): 2.373 n*10^5 | cell counts, 巨 (macrophages) (AV) ([2]; 40mg/kg, time 96): 2.398 n*10^5 | cell counts, 淋 (lymphocytes) (AV) ([2]; 40mg/kg, time 96): 2.312 n*10^5 | cell counts, total (AV) ([2]; 40mg/kg, time 192): 3.683 n*10^5 | cell counts, 中 (neutrophils) (AV) ([2]; 40mg/kg, time 192): 1.76 n*10^5 | cell counts, 巨 (macrophages) (AV) ([2]; 40mg/kg, time 192): 0.9141 n*10^5 | cell counts, 淋 (lymphocytes) (AV) ([2]; 40mg/kg, time 192): 1.009 n*10^5 | cell counts, total (AV) ([2]; 80mg/kg, time 0): 35.9167 n*10^5 | cell counts, 中 (neutrophils) (AV) ([2]; 80mg/kg, time 0): 31.0489 n*10^5 | cell counts, 巨 (macrophages) (AV) ([2]; 80mg/kg, time 0): 3.441 n*10^5 | cell counts, 淋 (lymphocytes) (AV) ([2]; 80mg/kg, time 0): 1.427 n*10^5 | cell counts, total (AV) ([2]; 80mg/kg, time 96): 2.675 n*10^5 | cell counts, 中 (neutrophils) (AV) ([2]; 80mg/kg, time 96): 0.2904 n*10^5 | cell counts, 巨 (macrophages) (AV) ([2]; 80mg/kg, time 96): 0.8707 n*10^5 | cell counts, 淋 (lymphocytes) (AV) ([2]; 80mg/kg, time 96): 1.514 n*10^5 | cell counts, total (AV) ([2]; 80mg/kg, time 192): 2.742 n*10^5 | cell counts, 中 (neutrophils) (AV) ([2]; 80mg/kg, time 192): 0.4795 n*10^5 | cell counts, 巨 (macrophages) (AV) ([2]; 80mg/kg, time 192): 1.166 n*10^5 | cell counts, 淋 (lymphocytes) (AV) ([2]; 80mg/kg, time 192): 1.096 n*10^5 | number of cells in BALF four days following treatment cessation ([2]; compound 16C 20, 40, and 80 mg/kg dose groups, 192 h, similar to control group (P> 0.05)): lower than that of the positive control | total number of inflammatory cells in BALF compared with the positive controls ([2]; compound 16C low-dose (20 mg/kg IM), after 4 days of treatment (96 h)): not statistically significant | TNF-α in BALF (AV) (TNF-α; compound 16C 20 mg/kg IM, 96 h): 60.6586 pg/mL | TNF-α in BALF (TNF-α; compound 16C 20 mg/kg IM, 96 h): 156.929 pg/mL and 49.4117 pg/mL and 56.9942 pg/mL and 23.2695 pg/mL and 42.5167 pg/mL and 34.8302 pg/mL | TNF-α in BALF (AV) (TNF-α; [3]): 1.835 pg/mL | TNF-α in BALF (TNF-α; [3]): 1.8363 pg/mL and 1.566 pg/mL and 2.372 pg/mL and 2.105 pg/mL and 1.293 pg/mL | TNF-α in BALF (AV) (TNF-α; compound 16C 40 mg/kg IM, 96 h): 10.1817 pg/mL | TNF-α in BALF (TNF-α; compound 16C 40 mg/kg IM, 96 h): 13.0051 pg/mL and 8.3889 pg/mL and 8.57 pg/mL and 9.454 pg/mL and 9.28 pg/mL and 12.3919 pg/mL | TNF-α in BALF (AV) (TNF-α; [4]): 8.528 pg/mL | TNF-α in BALF (TNF-α; [4]): 8.021 pg/mL and 8.206 pg/mL and 7.835 pg/mL and 9.798 pg/mL and 9.105 pg/mL | TNF-α in BALF (AV) (TNF-α; compound 16C 80 mg/kg IM, 96 h): 10.9013 pg/mL | TNF-α in BALF (TNF-α; compound 16C 80 mg/kg IM, 96 h): 5.596 pg/mL and 10.365 pg/mL and 13.376 pg/mL and 12.1685 pg/mL and 14.3215 pg/mL and 9.581 pg/mL | TNF-α in BALF (AV) (TNF-α; [5]): 10.3825 pg/mL | TNF-α in BALF (TNF-α; [5]): 8.923 pg/mL and 7.924 pg/mL and 10.8189 pg/mL and 12.996 pg/mL and 10.1697 pg/mL and 11.4637 pg/mL
